The supplement of paper PMC4862054

Tests used:
Test in all cases: normalised viability (% of control), CellTiter-Blue; higher = more viable cells (about 100 = DMSO control)
Settings in all cases: incubation time: 72 h
HDQ-P1 [1] = tested on: HDQ-P1
Method: (§1)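 DSRT, CellTiter-Blue viability, 72 h incubation. Signal is normalised to DMSO and benzethonium chloride controls. Value is the normalised response at dose 8.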

CAL-85-1 [2] = tested on: CAL-85-1
Method: as §1

CAL-148 [3] = tested on: CAL-148
Method: as §1

DU-4475 [4] = tested on: DU-4475
Method: as §1

CAL-51 [5] = tested on: CAL-51
Method: as §1

MDA-MB-453 [6] = tested on: MDA-MB-453
Method: as §1

HDQ-P1 [7] = tested on: HDQ-P1; remark: listed apart in the source
Method: (§2)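 DSRT, CellTiter-Blue viability, 72 h incubation. Signal is normalised to DMSO and benzethonium chloride controls. Value is the normalised response at dose 7.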

CAL-85-1 [8] = tested on: CAL-85-1; remark: listed apart in the source
Method: as §2

CAL-148 [9] = tested on: CAL-148; remark: listed apart in the source
Method: as §2

DU-4475 [10] = tested on: DU-4475; remark: listed apart in the source
Method: as §2

CAL-51 [11] = tested on: CAL-51; remark: listed apart in the source
Method: as §2

MDA-MB-453 [12] = tested on: MDA-MB-453; remark: listed apart in the source
Method: as §2

Compound	normalised viability (HDQ-P1 [1]) [%]	normalised viability (CAL-85-1 [2]) [%]	normalised viability (CAL-148 [3]) [%]	normalised viability (DU-4475 [4]) [%]	normalised viability (CAL-51 [5]) [%]	normalised viability (MDA-MB-453 [6]) [%]	normalised viability (HDQ-P1 [7]) [%]	normalised viability (CAL-85-1 [8]) [%]	normalised viability (CAL-148 [9]) [%]	normalised viability (DU-4475 [10]) [%]	normalised viability (CAL-51 [11]) [%]	normalised viability (MDA-MB-453 [12]) [%]
CO[C@H]1/C=C\C=C(/C)C(=O)NC2=CC(=O)C(NCCN(C)C)=C(C[C@@H](C)C[C@H](OC)[C@H](O)[C@@H](C)/C=C(\C)[C@@H]1OC(N)=O)C2=O [Alvespimycin] (300 nM)	33.1	24.4	14.8	1.07	18.2	8.24	–	–	–	–	–	–
Cn1c(Nc2ccc(C(F)(F)F)cc2)nc2cc(Oc3ccnc(-c4ncc(C(F)(F)F)[nH]4)c3)ccc21 [RAF265] (300 nM)	39.4	71.5	85.5	71.3	66.9	92.5	–	–	–	–	–	–
CN(C)/N=N/c1[nH]cnc1C(N)=O [Dacarbazine] (3000 nM)	95.5	87.3	94.8	101	97.2	95.7	–	–	–	–	–	–
C[C@@H](Oc1cc(-c2cnn(C3CCNCC3)c2)cnc1N)c1c(Cl)ccc(F)c1Cl [Crizotinib] (3000 nM)	86.7	66.1	76.8	78.7	62.9	57.3	–	–	–	–	–	–
CN(N=O)C(=O)N[C@@H](C=O)[C@@H](O)[C@H](O)[C@H](O)CO [Streptozocin] (3000 nM)	110	97.8	98.7	95.3	108	109	–	–	–	–	–	–
CN[C@@H]1C[C@H]2O[C@@](C)([C@@H]1OC)n1c3ccccc3c3c4c(c5c6ccccc6n2c5c31)C(=O)N[C@H]4O [UCN-01] (3000 nM)	10.2	6.08	41.7	1.19	6.6	20.2	–	–	–	–	–	–
Cc1ccc(-n2nc(C(C)(C)C)cc2NC(=O)Nc2ccc(OCCN3CCOCC3)c3ccccc23)cc1 [Doramapimod] (3000 nM)	75.8	76	93.1	114	102	96.8	–	–	–	–	–	–
O=C1CCC(N2C(=O)c3ccccc3C2=O)C(=O)N1 (centres undefined) [Thalidomide] (3000 nM)	99.7	91.7	113	110	89.8	99.4	–	–	–	–	–	–
N.N.[Cl][Pt][Cl] [Cisplatin] (3000 nM)	104	99.1	101	96.8	106	100	–	–	–	–	–	–
CC1(C)NC(=O)N(c2ccc([N+](=O)[O-])c(C(F)(F)F)c2)C1=O [Nilutamide] (3000 nM)	127	96.8	99.1	106	96.9	99	–	–	–	–	–	–
NCC(=O)CCC(=O)O [Aminolevulinic acid] (1000 nM)	–	–	–	–	–	–	95.2	97.4	95	95.6	106	90.5
NC(=O)Nc1cc(-c2cccc(F)c2)sc1C(=O)N[C@H]1CCCNC1 [AZD 7762] (300 nM)	76.6	45.4	96.1	118	94.1	46.8	–	–	–	–	–	–
CNCc1ccc(-c2[nH]c3cc(F)cc4c3c2CCNC4=O)cc1 [Rucaparib] (3000 nM)	82.9	79.3	87	87.3	102	87.5	–	–	–	–	–	–
COc1cc([C@@H]2c3cc4c(cc3[C@@H](O[C@@H]3O[C@@H]5CO[C@@H](C)O[C@H]5[C@H](O)[C@H]3O)[C@H]3COC(=O)[C@H]23)OCO4)cc(OC)c1O [Etoposide] (3000 nM)	78.7	76.9	41.3	3.63	26.4	89	–	–	–	–	–	–
N[C@@H](CSC(c1ccccc1)(c1ccccc1)c1ccccc1)C(=O)O [S-trityl-L-cysteine] (12000 nM)	84.6	36.7	106	114	98.6	99.1	–	–	–	–	–	–
C[C@]12CC[C@@H]3c4ccc(O)cc4C[C@@H](CCCCCCCCC[S+]([O-])CCCC(F)(F)C(F)(F)F)[C@H]3[C@@H]1CC[C@@H]2O (some centres undefined) [Fulvestrant] (3000 nM)	90.4	94.6	104	107	99.7	92.8	–	–	–	–	–	–
CCN(CCCOc1ccc2c(Nc3cc(CC(=O)Nc4cccc(F)c4)[nH]n3)ncnc2c1)CCOP(=O)(O)O [Barasertib] (300 nM)	64.3	73.1	22.6	63.8	54	61	–	–	–	–	–	–
COc1cc2nccc(Oc3ccc(NC(=O)C4(C(=O)Nc5ccc(F)cc5)CC4)cc3)c2cc1OC [Cabozantinib] (300 nM)	72.6	86.3	94.7	103	104	112	–	–	–	–	–	–
Cn1c(CCCC(=O)O)nc2cc(N(CCCl)CCCl)ccc21 [Bendamustine] (3000 nM)	101	93.8	101	105	112	113	–	–	–	–	–	–
